The values that follow come from ChEMBL document CHEMBL1201862, “PubChem BioAssay data set” (2004).

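These data come from cells grown in 96-well plates and exposed to compound for 48 hours at five concentrations. At the GI50, growth is halved.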 Active and inactive are the calls of the source. Cut-off read from the data, not from the text of the source: active = GI50 up to about 1.1 µM and inactive = higher.

Some test systems named below: MDA-MB-435; LOX IMVI; MOLT-4; EKVX; CAKI-1; NCI-H226; IGROV-1; MCF7; OVCAR-3; HT-29; PC-3; BT-549; HCT-116; SK-MEL-2; NCI/ADR-RES; OVCAR-5; K562; SNB-19; A549; M14.
Common to all, as to experiment: NCI-60 cell line screen, 48 h

Regarding `CCOC(=O)C(NC(=O)CC(C)C)(N1CCN(c2cc3c(cc2F)c(=O)c(C(=O)O)cn3C2CC2)CC1)C(F)(F)F` (stereo not given), the GI50 with MDA-MB-435 is 21.9 µM (inactive); with LOX IMVI, 15.8 µM (inactive); in the test on MOLT-4, 5.71 µM (inactive); in the test on EKVX, 23.4 µM (inactive); in the test on CAKI-1 it was 24.9 µM (inactive); in the test with NCI-H226 it was 20.7 µM (inactive). Also, the GI50 was 12.6 µM (inactive) with IGROV-1; 15.6 µM (inactive) in the test with MCF7; 14.7 µM (inactive) in the test with OVCAR-3; 29.3 µM (inactive) in the test on HT-29; 15 µM (inactive) in the test with PC-3; 16.3 µM (inactive) in the test with BT-549. Also, the GI50 was 20.4 µM (inactive) in the test with HCT-116; 20 µM (inactive) in the test on SK-MEL-2; 19.7 µM (inactive) in the test with NCI/ADR-RES; 17.7 µM (inactive) in the test with OVCAR-5; 11 µM (inactive) with K562; 28.8 µM (inactive) with SNB-19. Also, the results for the GI50 in the test with A549 and with M14 were 27.5 µM (inactive) and 20 µM (inactive), respectively.

Regarding `O=C1O/C(=C(\Br)c2ccc([N+](=O)[O-])cc2)c2ccccc21`, the GI50 in the test on MDA-MB-435 was 62.7 µM (inactive); in the test on LOX IMVI, 67.8 µM (inactive); in the test on MOLT-4 it was 27.8 µM (inactive); in the test on EKVX, > 100 µM (inactive); in the test with CAKI-1 it was > 100 µM (inactive); in the test on NCI-H226, > 100 µM (inactive). The GI50 was > 100 µM (inactive) in the test on IGROV-1; 48.5 µM (inactive) in the test on MCF7; > 88.5 µM (inactive) in the test on OVCAR-3; 41.1 µM (inactive) in the test with HT-29; > 100 µM (inactive) in the test with PC-3; > 79.8 µM (inactive) with BT-549. Also, the GI50 in the test with HCT-116 was 97.9 µM (inactive); with SK-MEL-2, 46.2 µM (inactive); with NCI/ADR-RES it was > 100 µM (inactive); with OVCAR-5 it was > 100 µM (inactive); in the test on K562, 30.1 µM (inactive); with SNB-19, > 100 µM (inactive). Moreover, the GI50 in the test on A549 and with M14 was > 100 µM (inactive) in each case.

Regarding `O/N=C1/Nc2ccccc2C(=S)N2CSCC12` (stereo not given), the GI50 was 19.4 µM (inactive) in the test on MDA-MB-435; 62.8 µM (inactive) in the test with LOX IMVI; > 100 µM (inactive) with MOLT-4; > 100 µM (inactive) with EKVX; > 100 µM (inactive) with CAKI-1; > 100 µM (inactive) in the test with NCI-H226. In addition, the GI50 is > 100 µM (inactive) with IGROV-1; 52.5 µM (inactive) in the test on MCF7; > 100 µM (inactive) with OVCAR-3; 36.9 µM (inactive) with HT-29; 73.8 µM (inactive) in the test with PC-3; > 100 µM (inactive) in the test on BT-549. Further, the GI50 is 43.6 µM (inactive) in the test on HCT-116; > 100 µM (inactive) in the test with SK-MEL-2; > 100 µM (inactive) in the test on NCI/ADR-RES; > 100 µM (inactive) in the test with OVCAR-5; 22.8 µM (inactive) in the test with K562; 50.4 µM (inactive) in the test with SNB-19. Also, the GI50 in the test on A549 was 83.2 µM (inactive); in the test on M14, 81.3 µM (inactive).

Take `O=C(Cc1ccccc1)N/N=C/c1ccccc1O`: the GI50 was 28.6 µM (inactive) with MDA-MB-435; 9.42 µM (inactive) in the test on LOX IMVI; 4.55 µM (inactive) in the test on MOLT-4; 5.28 µM (inactive) with EKVX; 5.92 µM (inactive) in the test on CAKI-1; 14.1 µM (inactive) with NCI-H226. The GI50 in the test with IGROV-1 is 7.85 µM (inactive); with MCF7, 3.94 µM (inactive); in the test on OVCAR-3, 3.36 µM (inactive); in the test on HT-29, 4.84 µM (inactive); with PC-3, 82.6 µM (inactive); in the test with BT-549, 27.9 µM (inactive). Also, the GI50 in the test on HCT-116 is 7.55 µM (inactive); with SK-MEL-2, > 100 µM (inactive); with NCI/ADR-RES, 3.98 µM (inactive); in the test on OVCAR-5, 20.6 µM (inactive); in the test on K562, 13.9 µM (inactive); in the test with SNB-19, 33.1 µM (inactive). Further, the GI50 with A549 is 26.1 µM (inactive); with M14, 10.5 µM (inactive).

Regarding `CCc1nc(N)nc(N)c1-c1ccc(N2CCOCC2)c(N=[N+]=[N-])c1`, the GI50 in the test with MDA-MB-435 was 55.1 µM (inactive); in the test on LOX IMVI, 38.7 µM (inactive); with MOLT-4, 64.3 µM (inactive); with EKVX it was 66.7 µM (inactive); in the test on CAKI-1, 62.2 µM (inactive); in the test on NCI-H226, 98.2 µM (inactive). The GI50 in the test with IGROV-1 was 28.2 µM (inactive); with MCF7 it was 71.3 µM (inactive); with OVCAR-3, 77.6 µM (inactive); in the test with HT-29, 31.8 µM (inactive); in the test on PC-3, 42.6 µM (inactive); with BT-549 it was > 78.2 µM (inactive). In addition, the GI50 was 18.4 µM (inactive) in the test on HCT-116; > 100 µM (inactive) with SK-MEL-2; > 100 µM (inactive) in the test with NCI/ADR-RES; > 100 µM (inactive) in the test on OVCAR-5; 8.79 µM (inactive) in the test on K562; 38.3 µM (inactive) in the test on SNB-19. Also, the GI50 in the test on A549 was 21.2 µM (inactive); with M14 it was 54.3 µM (inactive).

As for `COc1cc2c3c(c4cc(OC)c(OC)cc4c2cc1OC)[C@H](O)[C@@H]1CCCN1C3`, the GI50 was < 0.0265 µM (active) in the test with MDA-MB-435; < 0.0265 µM (active) in the test with LOX IMVI; < 0.01 µM (active) with MOLT-4; < 0.0217 µM (active) with EKVX; < 0.0324 µM (active) in the test with CAKI-1; 0.0494 µM (active) in the test with NCI-H226. Moreover, the GI50 in the test on IGROV-1 was < 0.0275 µM (active); in the test on MCF7, < 0.0173 µM (active); in the test with OVCAR-3, 0.0384 µM (active); in the test on HT-29, < 0.0191 µM (active); with PC-3 it was < 0.0303 µM (active); in the test with BT-549 it was 0.144 µM (active). Moreover, the GI50 in the test on HCT-116 is < 0.0215 µM (active); in the test with SK-MEL-2, < 0.0167 µM (active); with NCI/ADR-RES, < 0.0372 µM (active); with OVCAR-5 it was < 0.0316 µM (active); in the test on K562, < 0.021 µM (active); in the test with SNB-19, 0.0276 µM (active). Also, the GI50 in the test with A549 was < 0.0254 µM (active); in the test on M14, < 0.0332 µM (active).

On to `CC1(C)C(=O)N=C(N)N1C(=O)OCc1ccccc1`, for which the GI50 with MDA-MB-435, with LOX IMVI, in the test with MOLT-4, in the test on EKVX, in the test on CAKI-1 and in the test on NCI-H226 was > 100 µM (inactive) throughout. Also, the GI50 in the test with IGROV-1, in the test with MCF7, with OVCAR-3, with HT-29, in the test with PC-3 and in the test with BT-549 was > 100 µM (inactive) each time. Further, the GI50 in the test with HCT-116, with SK-MEL-2, in the test with NCI/ADR-RES, with OVCAR-5, in the test on K562 and in the test on SNB-19 was > 100 µM (inactive) throughout. Also, the GI50 in the test with A549 and with M14 was > 100 µM (inactive) throughout.
